Counter-ions that a name gives are not always drawn.
Key:
Bcl-2 protein = Bcl-2 protein (histag-Bcl-2, UniProtKB P10415) (Homo sapiens (Human), UniProt P10415); experiment: Inhibition of Bcl-2 by the fluorescence polarisation technique; type: binding; conditions: fluorescence polarisation test; method A, or method B where underlined (underlining not visible); read-out: IC50 (nM) Bcl-2 FP
Description: Inhibition of Bcl-2 by the fluorescence polarisation technique

[1] = system: RS4;11 leukaemia tumour line; experiment: In vitro cytotoxicity, Microculture Tetrazolium Assay (MTT); type: cell-based; conditions: Homo sapiens; RS4;11 cells, 48 hours exposure
Procedure: The cytotoxicity studies were carried out on the RS4;11 leukaemia tumour line.
The cells are distributed onto microplates and exposed to the test compounds for 48 hours. The cell viability is then quantified by a colorimetric assay, the Microculture Tetrazolium Assay (Cancer Res., 1987, 47, 939-942).

Sequence of Bcl-2 protein (P10415 whole entry): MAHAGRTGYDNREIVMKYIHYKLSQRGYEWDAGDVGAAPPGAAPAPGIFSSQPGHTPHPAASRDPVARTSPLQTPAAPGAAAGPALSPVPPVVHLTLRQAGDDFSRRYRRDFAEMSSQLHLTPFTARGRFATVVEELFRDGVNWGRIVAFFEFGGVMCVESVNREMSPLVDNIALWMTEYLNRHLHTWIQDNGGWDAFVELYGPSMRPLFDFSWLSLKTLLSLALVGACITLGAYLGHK

Row | SMILES | IC50 (Bcl-2 protein) | IC50 [1]
1 | Cc1cc(C(=O)N(c2ccccc2)c2ccc(O)cc2)cn1-c1cc(C(F)(F)F)ccc1C(=O)N1Cc2ccccc2C[C@H]1CN(C)C [Example 12, 1-[2-{[(3S)-3-[(Dimethylamino)methyl]-3,4-dihydroisoquinolin-2(1H)-yl]carbonyl}-5-(trifluoromethyl)phenyl]-N-(4-hydroxyphenyl)-5-methyl-N-phenyl-1H-pyrrole-3-carboxamide] | 120 nM | 1810 nM
2 | CN1CCN(C[C@@H]2Cc3ccccc3CN2C(=O)c2ccc(Br)cc2-n2cc(C(=O)N(c3ccc(O)cc3)c3ccc(O)cc3)c3ccccc32)CC1 [Example 54, 1-(5-Bromo-2-{[(3S)-3-[(4-methylpiperazin-1-yl)methyl]-3,4-dihydroisoquinolin-2(1H)-yl]carbonyl}phenyl)-N,N-bis(4-hydroxyphenyl)-1H-indole-3-carboxamide] | 20 nM | 103 nM
3 | NC[C@@H]1Cc2ccccc2CN1C(=O)c1ccccc1-n1nc(C(=O)N(c2ccccc2)c2ccc(O)cc2)c2ccccc21 [Example 148, 1-{2-[(3S)-3-(Aminomethyl)-1,2,3,4-tetrahydroisoquinoline-2-carbonyl]-phenyl}-N-(4-hydroxyphenyl)-N-phenyl-1H-indazole-3-carboxamide] | 28.3 nM | 1170 nM
4 | COc1ccc(C(=O)N2Cc3ccccc3C[C@H]2CN)c(-n2cc(C(=O)N(c3ccccc3)c3ccc(O)cc3)c3ccccc32)c1 [Example 146, 1-{2-[(3S)-3-(Aminomethyl)-1,2,3,4-tetrahydroisoquinoline-2-carbonyl]-5-methoxyphenyl}-N-(4-hydroxyphenyl)-N-phenyl-1H-indole-3-carboxamide] | 17.2 nM | 346 nM
5 | NC[C@@H]1Cc2ccccc2CN1C(=O)c1cc(NCc2ccccc2)ccc1-n1nc(C(=O)N(c2ccccc2)c2ccccc2)c2ccccc21 [Example 142, 1-{2-[(3S)-3-(Aminomethyl)-1,2,3,4-tetrahydroisoquinoline-2-carbonyl]-4-(benzylamino)phenyl}-N,N-diphenyl-1H-indazole-3-carboxamide] | 70.6 nM | 2290 nM
6 | Cc1cc(C(=O)N(c2ccccc2)c2ccc(O)cc2)cn1-c1cc2c(cc1C(=O)N1Cc3ccccc3C[C@H]1CN1CCOCC1)CCC2 [Example 107, N-(4-Hydroxyphenyl)-5-methyl-1-(6-{[(3S)-3-(morpholin-4-ylmethyl)-3,4-dihydroisoquinolin-2(1H)-yl]carbonyl}-2,3-dihydro-1H-inden-5-yl)-N-phenyl-1H-pyrrole-3-carboxamide hydrochloride] | 44 nM | 150 nM
7 | Cc1cc(C(=O)N(c2ccccc2)c2ccc(O)cc2)cn1-c1ccc(Cl)cc1C(=O)N1Cc2ccccc2C[C@H]1CN1CCN(C)CC1 [Example 25, 1-(4-Chloro-2-{[(3S)-3-[(4-methylpiperazin-1-yl)methyl]-3,4-dihydroisoquinolin-2(1H)-yl]carbonyl}phenyl)-N-(4-hydroxyphenyl)-5-methyl-N-phenyl-1H-pyrrole-3-carboxamide] | 87.6 nM | 1100 nM
8 | Cc1cc(C(=O)N(c2ccc(O)cc2)c2ccc3[nH]ccc3c2)cn1-c1ccccc1C(=O)N1Cc2ccccc2C[C@H]1CN(C)C [Example 23, 1-(2-{[(3S)-3-[(Dimethylamino)methyl]-3,4-dihydroisoquinolin-2(1H)-yl]carbonyl}phenyl)-N-(4-hydroxyphenyl)-N-(1H-indol-5-yl)-5-methyl-1H-pyrrole-3-carboxamide] | 26.1 nM | 445 nM
9 | CCCCN(CCCC)C(=O)c1cn(-c2ccc(NC(=O)COc3ccccc3)cc2C(=O)N2Cc3ccccc3C[C@H]2CN2CCN(C)CC2)c2ccccc12 [Example 200, N,N-Dibutyl-1-{2-[(3S)-3-[(4-methylpiperazin-1-yl)methyl]-1,2,3,4-tetrahydroisoquinoline-2-carbonyl]-4-(2-phenoxyacetamido)phenyl}-1H-indole-3-carboxamide] | 155 nM | 2080 nM
10 | NC[C@@H]1Cc2ccccc2CN1C(=O)c1cc(NC(=O)CSc2ccccc2)ccc1-n1cc(C(=O)N(c2ccccc2)c2ccc(O)cc2)c2ccccc21 [Example 157, 1-{2-[(3S)-3-(Aminomethyl)-1,2,3,4-tetrahydroisoquinoline-2-carbonyl]-4-[2-(phenylsulphanyl)acetamido]phenyl}-N-(4-hydroxyphenyl)-N-phenyl-1H-indole-3-carboxamide] | 16.1 nM | 487 nM
11 | CNc1ccc(-n2nc(C(=O)N(c3ccccc3)c3ccccc3)c3ccccc32)c(C(=O)N2Cc3ccccc3C[C@H]2CN)c1 [Example 140, 1-{2-[(3S)-3-(Aminomethyl)-1,2,3,4-tetrahydroisoquinoline-2-carbonyl]-4-(methylamino)phenyl}-N,N-diphenyl-1H-indazole-3-carboxamide] | 25 nM | 1840 nM

These reach a lower IC50 (Bcl-2 protein). Values come first.

Row | IC50 (Bcl-2 protein) | SMILES | IC50 [1]
12 | 10.5 nM | CN1CCN(C[C@@H]2Cc3ccccc3CN2C(=O)c2ccc(Br)cc2-n2cc(C(=O)N(c3ccc(O)cc3)c3ccc4[nH]ccc4c3)c3ccccc32)CC1 [Example 48, 1-(5-Bromo-2-{[(3S)-3-[(4-methylpiperazin-1-yl)methyl]-3,4-dihydroisoquinolin-2(1H)-yl]carbonyl}phenyl)-N-(4-hydroxyphenyl)-N-(1H-indol-5-yl)-1H-indole-3-carboxamide] | 93.9 nM
13 | 14.5 nM | Cc1cc(C(=O)N(c2ccc(O)cc2)c2ccc3c(c2)CCN3C)cn1-c1cc2c(cc1C(=O)N1Cc3ccccc3C[C@H]1C)OCO2 [Example 115, N-(4-Hydroxyphenyl)-5-methyl-N-(1-methyl-2,3-dihydro-1H-indol-5-yl)-1-(6-{[(3R)-3-methyl-3,4-dihydroisoquinolin-2(1H)-yl]carbonyl}-1,3-benzodioxol-5-yl)-1H-pyrrole-3-carboxamide hydrochloride] | 272 nM
14 | 4.4 nM | Cc1cc(C(=O)N(c2ccc(O)cc2)c2ccc3c(ccn3C)c2)cn1-c1cc2c(cc1C(=O)N1Cc3ccccc3C[C@H]1CN1CCOCC1)OCO2 [Example 109, N-(4-Hydroxyphenyl)-5-methyl-N-(1-methyl-1H-indol-5-yl)-1-(6-{[(3S)-3-(morpholin-4-ylmethyl)-3,4-dihydroisoquinolin-2(1H)-yl]carbonyl}-1,3-benzodioxol-5-yl)-1H-pyrrole-3-carboxamide hydrochloride] | 116 nM
15 | 13.1 nM | COc1ccc(N(C(=O)c2cn(-c3cc4c(cc3C(=O)N3Cc5ccccc5C[C@H]3CN3CCN(C)CC3)OCO4)c3ccccc23)c2ccc(O)cc2)cc1 [Example 49, N-(4-Hydroxyphenyl)-N-(4-methoxyphenyl)-1-(6-{[(3S)-3-[(4-methylpiperazin-1-yl)methyl]-3,4-dihydroisoquinolin-2(1H)-yl]carbonyl}-1,3-benzodioxol-5-yl)-1H-indole-3-carboxamide] | 136 nM
16 | 5.4 nM | Cc1ccc(N(C(=O)c2cn(-c3cc4c(cc3C(=O)N3Cc5ccccc5C[C@H]3CN3CCN(C)CC3)OCO4)c3ccccc23)c2ccc(O)cc2)cc1F [Example 52, N-(3-Fluoro-4-methylphenyl)-N-(4-hydroxyphenyl)-1-(6-{[(3S)-3-[(4-methylpiperazin-1-yl)methyl]-3,4-dihydroisoquinolin-2(1H)-yl]carbonyl}-1,3-benzodioxol-5-yl)-1H-indole-3-carboxamide] | 77.3 nM
17 | 5.4 nM | Cc1cc(C(=O)N(c2ccc(O)cc2)c2ccc3[nH]ccc3c2)cn1-c1cc(Cl)ccc1C(=O)N1Cc2ccccc2C[C@H]1CN1CCN(C)CC1 [Example 86, 1-(5-Chloro-2-{[(3S)-3-[(4-methylpiperazin-1-yl)methyl]-3,4-dihydroisoquinolin-2(1H)-yl]carbonyl}phenyl)-N-(4-hydroxyphenyl)-N-(1H-indol-5-yl)-5-methyl-1H-pyrrole-3-carboxamide] | 67.7 nM
18 | 8.7 nM | CN1CCN(C[C@@H]2Cc3ccccc3CN2C(=O)c2ccc(Cl)cc2-n2cc(C(=O)N(c3ccc(O)cc3)c3ccc(Cl)cc3)c3ccccc32)CC1 [Example 76, 1-(5-Chloro-2-{[(3S)-3-[(4-methylpiperazin-1-yl)methyl]-3,4-dihydroisoquinolin-2(1H)-yl]carbonyl}phenyl)-N-(4-chlorophenyl)-N-(4-hydroxyphenyl)-1H-indole-3-carboxamide] | 151 nM
19 | 12.5 nM | CN1CCN(C[C@@H]2Cc3ccccc3CN2C(=O)c2cc3c(cc2-n2cc(C(=O)N(c4ccc(O)cc4)c4cccc(Oc5ccccc5)c4)c4ccccc42)OCO3)CC1 [Example 39, N-(4-Hydroxyphenyl)-1-(6-{[(3S)-3-[(4-methylpiperazin-1-yl)methyl]-3,4-dihydroisoquinolin-2(1H)-yl]carbonyl}-1,3-benzodioxol-5-yl)-N-(3-phenoxyphenyl)-1H-indole-3-carboxamide hydrochloride] | 263 nM
20 | 7.8 nM | CN1CCN(C[C@@H]2Cc3ccccc3CN2C(=O)c2cc3c(cc2-n2cc(C(=O)N(CCc4ccccc4)c4ccc(O)cc4)c4ccccc42)OCO3)CC1 [Example 40, N-(4-Hydroxyphenyl)-1-(6-{[(3S)-3-[(4-methylpiperazin-1-yl)methyl]-3,4-dihydroisoquinolin-2(1H)-yl]carbonyl}-1,3-benzodioxol-5-yl)-N-(2-phenylethyl)-1H-indole-3-carboxamide] | 167 nM
21 | 7.9 nM | Cc1cc(C(=O)N(c2ccc(O)cc2)c2ccc3c(ccn3C)c2)cn1-c1cc2c(cc1C(=O)N1Cc3ccccc3C[C@H]1CN(C)C)OCO2 [Example 94, 1-(6-{[(3S)-3-[(Dimethylamino)methyl]-3,4-dihydroisoquinolin-2(1H)-yl]carbonyl}-1,3-benzodioxol-5-yl)-N-(4-hydroxyphenyl)-5-methyl-N-(1-methyl-1H-indol-5-yl)-1H-pyrrole-3-carboxamide hydrochloride] | 118 nM
